Data reported in US20070054353A1, “Nuclear receptor transcriptional corepressor and uses thereof” (priority 2002, published 2007).
Where a SMILES comes first, the peptide text is derived from it. [ ]: non-standard residue; d: D form. Aoe = N[C@@H](CCCCCC(=O)[C@@H]1CO1)C(=O)O

Columns and labels:
[1] = target: T1, interaction of LCoR and ERα (Homo sapiens, UniProt P03372); assay: BRET assay of LCoR-ERα interaction in living COS-7 cells; format: cell-based; details: 10^−7M ligand, COS-7 cells cotransfected with ERα-EYFP and LCoR-rluc
T1 construct: expressed in transfected cells; host or cells: COS-7
T1 sequence (P03372 1-595): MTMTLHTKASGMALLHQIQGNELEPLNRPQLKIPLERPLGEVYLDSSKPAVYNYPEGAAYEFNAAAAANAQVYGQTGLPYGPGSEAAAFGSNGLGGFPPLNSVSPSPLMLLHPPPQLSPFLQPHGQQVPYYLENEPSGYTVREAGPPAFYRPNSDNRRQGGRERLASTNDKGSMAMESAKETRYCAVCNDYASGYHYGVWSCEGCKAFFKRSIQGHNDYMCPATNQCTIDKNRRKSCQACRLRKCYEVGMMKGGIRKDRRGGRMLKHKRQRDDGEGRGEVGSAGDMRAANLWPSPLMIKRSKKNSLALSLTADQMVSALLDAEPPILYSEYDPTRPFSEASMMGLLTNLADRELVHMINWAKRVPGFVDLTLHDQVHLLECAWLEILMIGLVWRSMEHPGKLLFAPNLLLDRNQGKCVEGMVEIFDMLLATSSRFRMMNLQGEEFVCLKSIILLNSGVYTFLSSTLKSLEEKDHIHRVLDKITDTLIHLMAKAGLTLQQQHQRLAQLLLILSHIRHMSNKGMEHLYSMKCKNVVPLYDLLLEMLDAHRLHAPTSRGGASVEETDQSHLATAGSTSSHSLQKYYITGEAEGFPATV
Method: Readings were started immediately after coelenterazine H addition, and 10 repeated measures were taken.
Interaction of ERα and LCoR in vivo was further tested by bioluminescence resonance energy transfer (BRET) in living COS-7 cells transiently cotransfected with plasmids expressing ERα-EYFP and LCoR-rluc fusion proteins. […] BRET ratios were calculated as described in experimental procedures.

ERα LBD = target: T2, ERα LBD (Homo sapiens, UniProt P03372); assay: GST pull-down of in vitro translated LCoR with GST-ERα LBD; format: binding; details: ligand added to 10^−6 M
T2 construct: the ERα LBD fused to GST (GST-ERα-LBD); made in house; LCoR by in vitro translation
T2 sequence (P03372 311-547 limits assumed): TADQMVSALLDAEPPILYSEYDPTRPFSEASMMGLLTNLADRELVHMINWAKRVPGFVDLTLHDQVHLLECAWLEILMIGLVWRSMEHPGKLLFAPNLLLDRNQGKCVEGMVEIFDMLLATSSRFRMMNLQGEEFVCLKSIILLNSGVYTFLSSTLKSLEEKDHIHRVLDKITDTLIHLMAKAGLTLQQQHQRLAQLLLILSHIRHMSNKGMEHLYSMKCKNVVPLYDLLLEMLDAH

CtBP1 = target: T3, CtBP1 (Homo sapiens, UniProt Q13363); assay: GST pull-down of in vitro translated CtBP1 with GST-LCoR; format: binding
T3 construct: made in house; host or cells: CtBP1 by in vitro translation
Method: GST pull-down assays were performed as described (Eng, F.C.S. et al. (1998) J. Biol. Chem., 273, 28371-7), with the exception that assays performed with in vitro translated ER378 included two more washes made with the GST buffer containing 150 mM NaCl. For immunoprecipitations of tagged proteins, COS-7 cells in 100 mm dishes were transfected with 6 μg of HA-LCOR and/or 6 μg of HA-Flag-HDAC6 or with 6 μg of Flag-LCoR and/or 6 μg of HA-HDAC3 and pSG5 carrier. 48 h after transfection, cells were lysed 30 min at […] in 1 ml of JLB (20 mM Tris-HCl, pH8, 150 mM KCl, 10% glycerol, 0.1% IGEPAL CA-630, and complete protease inhibitor cocktail; Boehringer-Mannheim, Laval, Qc). Cell debris were pelleted by centrifugation (14,000 rpm, 5 min), and proteins immunoprecipitated from 600 μl of supernatant by incubation for 1 h at 4° C. with 4 μg of α-Flag M2 antibody or polyclonal anti-HDAC3, followed by overnight incubation with protein A+G agarose or protein-A agarose beads for anti-Flag, and anti-HDAC3, respectively. Beads were washed (3×) with JLB. Bound immunocomplexes were boiled in Laemmli buffer, separated by 10% SDS/PAGE, and blotted on PVDF membrane with α-Flag M2-peroxidase, α-HDAC3, α-HA-peroxidase (1:500), and detected by enhanced chemiluminescence (NEN Life Science Products, Boston, Mass.). […]

HDAC6 = assay: ERα-dependent CAT reporter with LCoR and HDAC6 cotransfection in MCF-7 cells; format: cell-based, human; details: estradiol 10 nM, TSA 500 nM, trapoxin 50 nM
Method: All cells were cultured under the recommended conditions. For immunocytochemistry, COS-7 cells grown on collagen IV-treated microscope slides in 6-well plates in DMEM, supplemented with 10% FBS were transfected in medium without serum with 12.5 μl of lipofectamine 2000 (Invitrogen, Burlington, Ont.) containing 1 μg each of pSG5/LCoR and HA-Flag-HDAC6/pcDNA3. Medium was replaced 24 h after transfection and cells were prepared for immunocytochemistry after 48 h as described below. For immunoprecipitation of tagged proteins, MCF-7 cells in 100 mm dishes were transfected with 10 μl of lipofectamine containing 10 μg of pSG5 vectors containing Flag-LCoR, Flag-m1, Flag-m2 or Flag-m1+2. For analysis of the effects of HDACs 3 or 6 on LCoR corepression, COS-7 cells (60-70% confluent) grown in DMEM without phenol red, supplemented with 10% FBS on 6-well plates were transfected in medium without serum with lipofectamine 2000 (Invitrogen, Burlington, Ontario, Canada) with 100 ng of ERα expression vectors as indicated, 300 ng of LCoR/pSG5, 300 ng of HA-HDAC3/pCDNA3.1 or […], 250 ng of ERE3-TATA-CAT reporter plasmid, 250 ng of internal control vector pCMV-βgal, and pBluescript carrier DNA to 4 μg. Medium was replaced 18 hr after transfection by a medium containing charcoal-stripped serum and ligand (10 nM) for 30 hr, as indicated. […]

4-hydroxytamoxifen
effect on BRET ratio [1]: no significant effect | induction of interaction of LCoR with ERα (ERα LBD): did not induce interaction

NC(=O)C1=CN([C@@H]2O[C@H](COP(=O)(O)OP(=O)(O)OC[C@H]3O[C@@H](n4cnc5c(N)ncnc54)[C@H](O)[C@@H]3O)[C@@H](O)[C@H]2O)C=CC1 [NADH]
effect on interaction of CtBP1 with LCoR in vitro (CtBP1): no effect

O=C1N[C@@H](Cc2ccccc2)C(=O)N2CCC[C@@H]2C(=O)N[C@@H](CCCCCC(=O)[C@@H]2CO2)C(=O)N[C@H]1Cc1ccccc1 [trapoxin] (cyclo(FF[dP][Aoe]))
effect on HDAC6 repression / enhancement of LCoR corepression of ERα transactivation (HDAC6): not
